# Laboratory results reported in US20130296441A1, “Anti-Obesity Properties of Pterostilbene” (priority 2012, published 2013).
# Like-named read-outs stand apart in the source and are kept apart here. Marks after values point to notes of the source that are not given here.
# Columns and labels:
# [1] = test system: male Wistar rats fed obesogenic diet high in sucrose and fat; assay: Body weight, food intake, adipose tissue and muscle weights in rats fed an obesogenic diet with pterostilbene for 6 weeks; type: in vivo, rat; conditions: for decrease in total adipose tissue mass: versus control; for Adipose Tissue Weight, Epididymal / Adipose Tissue Weight, Interscapular Brown / Adipose Tissue Weight, Mesenteric / Adipose Tissue Weight, Perirenal / Adipose Tissue Weight, Subcutaneous / Adipose Tissue Weight, Total Fat Depots / Body Weight Increase / Food Intake / Final Body Weight: mean ± SEM; for Final Body Weight: n = 9, in g
# Method: (§1) The experiment was conducted with twenty seven male Wistar rats with an initial body weight of 180±2 grams purchased from Harlan Ibérica (Barcelona, Spain), and took place in accordance with the University of the Basque Country's guide for the care and use of laboratory animals (Reference protocol approval CUEID CEBA/30/2010). The rats were individually housed in polycarbonate metabolic cages (Techniplast Gazzada, Guguggiate, Italy) and placed in an air-conditioned room (22±2° C.) with a 12 h light-dark cycle. After a 6-day adaptation period, rats were randomly divided in 3 dietary groups of nine animals each, and fed on a commercial obesogenic diet, high in sucrose (20.0%) and fat (22.5%) (Harlan Iberica, TD.06415). Pterostilbene was added to the diet. Rats in the pterostilbene groups received 15 mg/kg body weight/d (PT15 group) or 30 mg/kg body weight/d (PT30 group). All animals had free access to food and water. Food intake and body weight were daily measured.
# At the end of the 6-week experimental period, animals were sacrificed, under anaesthesia (chloral hydrate), by cardiac exsanguination. White adipose tissue from different anatomical locations (perirenal, epididymal, mesenteric and subcutaneous) and liver were dissected, weighed and immediately frozen.
# [2] = Serum and tissue levels of pterostilbene by GC-MS; type: in vivo, rat; conditions: for concentration at 6 weeks: male, Wistar, rat, oral
# Method: as §1
# Extraction of pterostilbene in the serum was according to published procedure (Kotani et al. 2003. J. Chromatogr. B. 788:269-275), with modifications. Serum from −80° C. storage was thawed on ice. To 50 μL serum was added 15 μL of β-glucuronidase (from E. coli, Type IX-A, Sigma-Aldrich, St. Louis, Mo., USA; 250 U/15 mL sodium phosphate buffer, 0.1M, pH 6.8) and 15 μL of sulfatase (from Abalone Entrails, Type VIII, Sigma-Aldrich, St. Louis, Mo., USA; 20 U/15 mL sodium phosphate buffer, 0.1M, pH 6.8), then vortex-mixed. This mixture was incubated for 20 hr at 37° C. while shaking at 750 rpm, cooled to room temperature, then partitioned with ethyl acetate (75 μL×3). The ethyl acetate layers were combined and dried under nitrogen. The dried sample was derivatized with 40 μL of N,O-bis[trimethylsilyl]-trifluoroacetamide: dimethyl-formamide (BSTFA:DMF, 1:1; Pierce Biotechnology, Inc., Rockford, Ill.), heated at 70° C. for 40 min and used for the analysis of pterostilbene by gas chromatography-mass spectrometry (GC-MS).
# Pterostilbene in liver and muscle was extracted following published procedure (Hou et al. 2011. Planta Med. 77:455-460), with minor modifications. For liver, 100 mg fresh tissues were homogenized in 1 mL saline solution (0.9% NaCl in H2O). For muscle, 100 mg lyophilized tissue was homogenized in 1 mL sodium acetate buffer, pH 5. To the homogenates was added 300 μL enzyme solution (793.67 U/mL sulfatase and 666.66 U/mL β-glucuronidase in sodium acetate buffer, pH 5), vortex-mixed, and incubated at 37° C. for 16 hr while shaking at 750 rpm. To this mixture was added 100 μL of 0.1N HCl, then partitioned with ethyl acetate (800 μL×2). The ethyl acetate layers were combined, then dried under nitrogen. The dried sample was derivatized with BSTFA:DMF under the same conditions used for the analysis of pterostilbene in serum.
# For the analysis of pterostilbene in epididymis and subcutaneous tissues, 100 mg of lyophilized tissue was homogenized in 300 μL of sodium acetate buffer, then sonicated for 30 min. To the homogenate was added 300 μl enzyme solution (793.67 U/mL sulfatase and 1333.33 U/mL β-glucuronidase in sodium acetate buffer, pH5) vortex-mixed, and incubated at 37° C., with shaking (750 rpm), for 16 hours. After incubation, 500 μl ice-cold acetonitrile was added, vortex-mixed for 1 min, then centrifuged at 800 rpm (Savant SpeedVac, model number SPD121P-120) for 20 min. The clear supernatant was collected, and again treated with 500 μl ice-cold acetonitrile, vortex-mixed and then centrifuged at 800 rpm for 20 min. The supernatant was then dried under a stream of nitrogen, then derivatized with BSTFA:DMF using the same conditions as in the analysis of pterostilbene in serum.
# GC-MS analysis of pterostilbene in serum and tissues was performed using a J&W DB-5 capillary column (0.25 mm internal diameter, 0.25 μm film thickness, 30 m length; Agilent Technologies, Foster City, Calif.) on a JEOL GCMate II Instrument (JEOL USA Inc., Peabody, Mass.). […]
# [3] = in vivo; cited from earlier work
# mice = mice fed 28 days at doses up to 3000 mg/kg body weight/d; cited from earlier work
# [4] = PT15: 15 mg/kg body weight/d in diet
# [5] = PT30: 30 mg/kg body weight/d in diet
structure (smiles),measurement,setting,value
COc1cc(/C=C/c2ccc(O)cc2)cc(OC)c1 [pterostilbene],decrease in total adipose tissue mass,[1]; PT15: 15 mg/kg BW/d,15.1%
same,"Adipose Tissue Weight, Epididymal",[1]; [4],10.5 ± 0.9 g
same,"Adipose Tissue Weight, Interscapular Brown",[1]; [4],1.01 ± 0.23 g
same,"Adipose Tissue Weight, Mesenteric",[1]; [4],5.2 ± 0.4^ab g
same,"Adipose Tissue Weight, Perirenal",[1]; [4],12.0 ± 1.1^ab g
same,"Adipose Tissue Weight, Subcutaneous",[1]; [4],12.6 ± 1.2^b g
same,"Adipose Tissue Weight, Total Fat Depots",[1]; [4],40.3 ± 3.0^b g
same,Body Weight Increase,[1]; [4],206 ± 9 g
same,Food Intake,[1]; [4],17.7 ± 0.5 g/day
same,Final Body Weight,[1]; [4],382 ± 5
same,decrease in total adipose tissue mass,[1]; PT30: 30 mg/kg BW/d,22.9%
same,"Adipose Tissue Weight, Epididymal",[1]; [5],10.5 ± 1.1 g
same,"Adipose Tissue Weight, Interscapular Brown",[1]; [5],0.75 ± 0.05 g
same,"Adipose Tissue Weight, Mesenteric",[1]; [5],4.8 ± 0.5^b g
same,"Adipose Tissue Weight, Perirenal",[1]; [5],11.2 ± 1.0^b g
same,"Adipose Tissue Weight, Subcutaneous",[1]; [5],12.7 ± 1.6^b g
same,"Adipose Tissue Weight, Total Fat Depots",[1]; [5],36.6 ± 3.5^b g
same,Body Weight Increase,[1]; [5],200 ± 6 g
same,Food Intake,[1]; [5],17.5 ± 0.3 g/day
same,Final Body Weight,[1]; [5],382 ± 5
same,Muscle level of pterostilbene,"[2]; PT15: 15 mg/kg body weight/d in diet, 6 weeks",Not Detected
same,concentration at 6 weeks,"[2]; epididymis, PT15: 15 mg/kg body weight/d in diet, dry weight, n = 8, read-out: Epididymis level of pterostilbene",10.9 ± 5.3 ng/g
same,concentration at 6 weeks,"[2]; epididymis, PT30: 30 mg/kg body weight/d in diet, dry weight, n = 8, read-out: Epididymis level of pterostilbene",30.7 ± 11 ng/g
same,concentration at 6 weeks,"[2]; liver, PT15: 15 mg/kg body weight/d in diet, fresh weight, n = 8, read-out: Liver level of pterostilbene",308 ± 117 ng/g
same,concentration at 6 weeks,"[2]; liver, PT30: 30 mg/kg body weight/d in diet, fresh weight, n = 6, read-out: Liver level of pterostilbene",726 ± 112 ng/g
same,concentration at 6 weeks,"[2]; muscle, PT30: 30 mg/kg body weight/d in diet, dry weight, n = 8, read-out: Muscle level of pterostilbene",9.1 ± 2 ng/g
same,concentration at 6 weeks,"[2]; serum, PT15: 15 mg/kg body weight/d in diet, after glucuronidase/sulfatase hydrolysis, n = 8, read-out: Serum level of pterostilbene",0.384 ± 0.0547 µg/mL
same,concentration at 6 weeks,"[2]; serum, PT30: 30 mg/kg body weight/d in diet, after glucuronidase/sulfatase hydrolysis, n = 6, read-out: Serum level of pterostilbene",0.789 ± 0.246 µg/mL
same,concentration at 6 weeks,"[2]; subcutaneous tissue, PT15: 15 mg/kg body weight/d in diet, dry weight, n = 7, read-out: Subcutaneous tissue level of pterostilbene",20.5 ± 13.7 ng/g
same,concentration at 6 weeks,"[2]; subcutaneous tissue, PT30: 30 mg/kg body weight/d in diet, dry weight, n = 7, read-out: Subcutaneous tissue level of pterostilbene",35.4 ± 7.7 ng/g
same,half-life,[3],approximately 2 hr
same,toxic or adverse biochemical effects compared to controls,mice,no significant toxic or adverse biochemical effects
